In patent publication US5773646A, “Meta-substituted phenylene derivatives” (G. D. Searle & Co., priority 1997, dated 1998) one finds IC50 data, which are given here for 5 compounds.

Each structure is given as a SMILES string. Structures can show the parent of a compound that is named as a salt.

Assay [1] deals with T1, Human vitronectin receptor (αv β3) (Homo sapiens, UniProt P05106+P06756).
T1 construct: Human vitronectin receptor(αv β3) was purified from human placenta; from tissue; host or cells: human placenta
Briefly: Vitronectin adhesion assay (solid phase receptor assay, biotinylated vitronectin competition). Type of assay: binding. As to conditions: inhibition of 50% of the maximum binding of biotinylated vitronectin; 1 nM labeled ligand, 2 hours, room temperature, highest concentration of test compound 1.0×10^-4 M; read-out: AvB3 IC50. A digest of the protocol: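 Placenta-purified αvβ3 coated at 1.0 μg/mL in TBS (1 mM Ca, Mg, Mn, pH 7.4), overnight 4 °C. Compound competed 2 h at RT with 1 nM biotinylated vitronectin (final; top compound 1.0×10^-4 M); bound ligand detected by HRP anti-biotin/OPD at 450 nm, normalized to no-competitor controls, four-parameter fit.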

Assay [2] addresses T2, Human fibrinogen receptor (αIIb β3) (Homo sapiens, UniProt P05106+P08514).
T2 construct: Human fibrinogen receptor (αIIb β3) was purified from outdated platelets; from tissue; host or cells: outdated human platelets
Briefly: Purified IIb/IIIa receptor assay (solid phase receptor assay, biotinylated vitronectin competition). As to conditions: inhibition of 50% of the maximum binding of biotinylated vitronectin; 1 nM labeled ligand, 2 hours, room temperature, highest concentration of test compound 1.0×10^-4 M. A digest of the protocol:
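Platelet-purified αIIbβ3 was coated at 100 ng/well in TBS with 1 mM Ca²⁺/Mg²⁺/Mn²⁺, pH 7.4, then BSA-blocked. Compound (up to 1.0×10⁻⁴ M final) competed with 1 nM biotinylated vitronectin for 2 h at room temperature. Bound ligand was detected with HRP anti-biotin at A450, normalized to maximum binding, and curve-fitted.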

As usually defined, the IC50 is the concentration that inhibits the measured activity by half. Take `O=C(O)CC(c1cc(F)cc(F)c1)c1cccc(NS(=O)(=O)c2cccc(NC3=NCCN3)c2)c1` (stereo not drawn) [Example 98, β-[3-[[[3-[(4,5-dihydro-1H-imidazol-2-yl)amino]phenyl]sulfonyl]amino]phenyl]-3,5-difluorobenzenepropanoic Acid, Trifluoroacetate Salt]: the IC50 in assay [1] stood at 0.85 nM; in assay [2], 642 nM.
On to `O=C(O)CC(c1ccccc1)c1cccc(OCc2cccc(NC3=NCCN3)c2)c1` (stereo not drawn) [Example 99, 3-[[3-[(4,5-dihydro-1H-imidazol-2-yl)amino]phenyl]methoxy]-β-phenylbenzenepropanoic Acid, Trifluoroacetate Salt], for which the IC50 in assay [1] was found to be 48.6 nM; in assay [2], 1000 nM.
On the same counts, the results for `N=C(N)Nc1cccc(S(=O)(=O)Nc2cccc(C3CC(=O)Oc4ccccc43)c2)c1` (stereo not shown) [Example 100, 3-[(aminoiminomethyl)amino]-N-[3-(3,4-dihydro-2-oxo-2H-benzopyran-4-yl)phenyl]benzenesulfonamide, Trifluoroacetate Salt] are 21.8 nM and 2340 nM.
With `O=C1CC(c2cccc(NS(=O)(=O)c3cccc(NC4=NCCN4)c3)c2)c2ccccc2O1` (stereo not shown) [Example 101, 3-[(4,5-dihydro-1H-imidazol-2-yl)amino]-N-[3-(3,4-dihydro-2-oxo-2H-benzopyran-4-yl)phenyl]benzenesulfonamide, Trifluoroacetate Salt], the figures for the IC50 in assay [1] and in assay [2] were 50.3 nM and 3250 nM, respectively.
Consider `N=C(N)Nc1cccc(S(=O)(=O)Nc2cccc(C(CC(=O)O)c3ccccc3O)c2)c1` (stereo not drawn) [Example 102, Sodium β-[3-[[[3[(aminoiminomethyl)amino]phenyl]-sulfonyl]amino]phenyl]-2-hydroxybenzenepropanoate, Trifluoroacetate Salt], for which the results for the IC50 in assay [1] and in assay [2] were 23.2 nM and 706 nM, respectively.
